From ChEMBL document CHEMBL4406817, “Cell-active carbazole derivatives as inhibitors of the zika virus protease” (Eur J Med Chem, 2019)
The source made the active and inactive calls. No cut-off for these calls is given here.

Experiments:
Nonstructural protein 3 [1] = target: T1, Nonstructural protein 3 (Zika virus, UniProt A0A024AXB9); experiment: Inhibition of N-terminal linked Zika virus NS2B (45 to 96 residues) - NS3 (1 to 177 residues) protease domain expressed in Escherichia coli Bl21(DE3) using Bz-nKRR-AMC as substrate preincubated for 15 mins followed by substrate addition and measured by fluorescence based assay
Nonstructural protein 3 [2] = target: T1, Nonstructural protein 3; experiment: (§1) Inhibition of N-terminal unlinked Zika virus NS2B (45 to 96 residues) - NS3 (1 to 177 residues) protease domain expressed in Escherichia coli Bl21(DE3) using Bz-nKRR-AMC as substrate preincubated for 15 mins followed by substrate addition and measured by fluorescence based assay
Nonstructural protein 3 [3] = target: T1, Nonstructural protein 3; experiment: Inhibition of N-terminal His6-tagged Zika virus NS2B (46 to 99 residues) - NS3 (1 to 187 residues) protease domain expressed in Rosetta2-(DE3) using Boc-Gly-Arg-Arg-AMC as substrate preincubated for 10 mins followed by substrate addition and measured for 6 mins by fluorescence based assay
Nonstructural protein 3 [4] = target: T1, Nonstructural protein 3; experiment: Inhibition of N-terminal His-tagged Zika virus NS2B (46 to 99 residues) - NS3 (1 to 187 residues) protease domain expressed in Rosetta2-(DE3) assessed as inhibitory constant using Boc-Gly-Arg-Arg-AMC as substrate and measured for 10 mins by fluorescence based assay
Zika virus [5] = experiment: Antiviral activity against Zika virus H/PF/2013 infected in human HuH7 cells assessed as reduction in viral titer incubated for 24 hrs by plague assay; type: functional, organism-based
[6] = Cytotoxicity against human HuH7 cells assessed as reduction in cell viability incubated for 48 hrs by cellTiter-Glo assay; type: cell-based, Huh-7
[7] = Selectivity index, ratio of CC50 for cytotoxicity against human HuH7 cells to EC50 for antiviral activity against H/PF/2013 Zika virus infected in human HuH7 cells; type: toxicity, cell-based; details: for selectivity ratio: HuH7 cells, read-out: Ratio CC50/EC50
[8] = Selectivity index, ratio of EC50 of antiviral activity against Zika virus infected in human HuH7 cells to IC50 of inhibition of N-terminal unlinked Zika virus NS2B (45 to 96 residues) - NS3 (1 to 177 residues) protease domain expressed in Escherichia coli Bl21(DE3); type: toxicity
Nonstructural protein 3 [9] = target: T1, Nonstructural protein 3; experiment: Inhibition of N-terminal His6-tagged Zika virus NS2B (45 to 96 residues) - NS3 (1 to 177 residues) protease domain expressed in Escherichia coli Bl21(DE3) using Bz-nKRR-AMC as substrate preincubated for 30 mins in presence of bZipro and measured for 60 sec over 10 mins by fluorescence based assay
Zika virus [10] = experiment: Antiviral activity against Zika virus; type: functional, organism-based
Nonstructural protein 3 [11] = target: T1, Nonstructural protein 3; experiment: Inhibition of N-terminal His6-tagged Zika virus NS2B (49 to 95 residues) - NS3 (1 to 170 residues) protease domain expressed in Escherichia coli Bl21(DE3) using Bz-Nle-Lys-Lys-Arg-AMC as substrate preincubated for 10 mins followed by substrate addition measured after 10 mins by fluorescence based assay
Nonstructural protein 3 [12] = target: T1, Nonstructural protein 3; experiment: Inhibition of N-terminal His-tagged Zika virus NS2B (49 to 95 residues) - NS3 (1 to 185 residues) protease domain expressed in Escherichia coli Bl21(DE3) using TAMRA-RRRRSAG-GXL570 as substrate preincubated for 30 mins followed by substrate addition measured after 1 hr by fluorescence based assay
[13] = Cytotoxicity against human A549 cells assessed as reduction in cell viability incubated for 42 hrs by WST-8 assay; type: cell-based
[14] = Selectivity index, ratio of EC50 of antiviral activity against Zika virus infected in human A549 cells to IC50 of inhibition of N-terminal His6-tagged Zika virus NS2B (49 to 95 residues) - NS3 (1 to 185 residues) protease domain expressed in Escherichia coli Bl21(DE3); type: toxicity
[15] = target: Nonstructural protein 3 (Zika virus) (UniProt A0A024AXB9); experiment: as §1, with “Non-competitive inhibition” for “Inhibition”, “30” for “15”, “measured for every 60 sec over 12 mins” for “measured”, “Lineweaver-burk plot analysis” for “assay”
[16] = Zika virus, H/PF/2013, Huh-7, 24 h, read-out: EC50

T1 sequence (A0A024AXB9 whole entry, the tested form may be a part): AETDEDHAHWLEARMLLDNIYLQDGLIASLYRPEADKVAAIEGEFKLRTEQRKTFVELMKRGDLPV
Nonstructural protein 3 (Zika virus), sequence (A0A024AXB9 as listed by the source): as the sequence (A0A024AXB9 whole entry, the tested form may be a part) above

SMILES	IC50 (Nonstructural protein 3 [2]) [µM]	EC50 (Zika virus [5]; [16]) [µM]	CC50 at 48 h [6] [µM]	selectivity ratio [7]	further results
N=C(N)c1cccc(-c2cccc(-c3cccc(C(=N)N)c3)c2)c1	38.3				IC50 (Nonstructural protein 3 [1]): 104 µM
COc1ccc(Cl)c2sc(NC(=O)c3ccccc3NS(=O)(=O)c3ccc(C)cc3)nc12					IC50 (Nonstructural protein 3 [3]): 4.1 µM; Ki (Nonstructural protein 3 [4]): 9 µM
Cn1c2ccc(Br)cc2c2cc(-c3cccc(C(=N)N)c3)ccc21	13.9	1.35	6.57	5.42	
N=C(N)c1cccc(-c2ccc3ccc(-c4cccc(C(=N)N)c4)cc3c2)c1	32.5	4.95			IC50 (Nonstructural protein 3 [1]): 49.5 µM
N=C(N)c1cccc(NC(=O)Nc2cccc(C(=N)N)c2)c1 [AMICARBALIDE]					IC50 (Nonstructural protein 3 [1]): 47.6 µM
COc1cccc(Cn2c3ccc(-c4cccc(C(=N)N)c4)cc3c3cc(-c4cccc(C(=N)N)c4)ccc32)c1	1.75	6.37	22.7	3.4	Selectivity Index [8]: 1 to 10
N=C(N)c1cccc(Cn2c3ccc(Br)cc3c3cc(Br)ccc32)c1	25.6	5.09	12.8	2.51	
N=C(N)c1cccc(-c2ccc3c(c2)c2cc(Br)ccc2n3S(=O)(=O)c2cccc(C(=N)N)c2)c1	9.19	5.9	35.7	4.2	Selectivity Index [8]: 1 to 10
N#Cc1cccc(-c2ccc3c(c2)c2cc(-c4cccc(C#N)c4)ccc2n3Cc2cccc(C(=N)N)c2)c1	14.9		7.48		EC50 (Zika virus [5]): Not Active
COc1ccc(S(=O)(=O)n2nc(OC(=O)c3cccc(-c4ccccc4Cl)c3)cc2N)cc1					IC50 (Nonstructural protein 3 [9]): 0.1 µM
CO[C@@H]1[C@@H](OC(N)=O)[C@@H](O)[C@H](Oc2ccc3c(O)c(NC(=O)c4ccc(O)c(CC=C(C)C)c4)c(=O)oc3c2C)OC1(C)C [NOVOBIOCIN]					EC50 (Zika virus [10]): 62.2 µM
COc1cccc(Cn2c3ccc(-c4cccc(C#N)c4)cc3c3cc(-c4cccc(C(=N)N)c4)ccc32)c1	1.91	1.95	3.3	2.8	
N#Cc1cccc(-c2ccc3c(c2)c2cc(-c4cccc(C#N)c4)ccc2n3S(=O)(=O)c2cccc(C(=N)N)c2)c1	3.5		3.35		EC50 (Zika virus [5]): Not Active
COc1cccc(S(=O)(=O)n2c3ccc(-c4cccc(C#N)c4)cc3c3cc(-c4cccc(C(=N)N)c4)ccc32)c1	0.82	16	37.9	2.37	Selectivity Index [8]: 1 to 10
COc1cccc(Cn2c3ccc(Br)cc3c3cc(-c4cccc(C(=N)N)c4)ccc32)c1	4.04	2.27	5.3	2.3	
COc1cccc(S(=O)(=O)n2c3ccc(Br)cc3c3cc(-c4cccc(C(=N)N)c4)ccc32)c1	8.1		5.22		EC50 (Zika virus [5]): Not Active; Ratio CC50/EC50 [7]: Not Active
N=C(N)c1cccc(S(=O)(=O)n2c3ccc(Br)cc3c3cc(Br)ccc32)c1	14.2	3.26	6.58	4.14	
Cn1c2ccc(-c3cccc(C#N)c3)cc2c2cc(-c3cccc(C(=N)N)c3)ccc21	1.7		6.25		EC50 (Zika virus [5]): Not Active
CC(C)C[C@H]1C(=O)N2CCC[C@H]2[C@]2(O)O[C@](NC(=O)[C@@H]3C=C4c5cccc6[nH]c(Br)c(c56)C[C@H]4N(C)C3)(C(C)C)C(=O)N12 [BROMOCRIPTINE]					IC50 (Nonstructural protein 3 [11]): 13 µM
O=C1C=C/C(=N/Nc2ccc([N+](=O)[O-])cc2Cl)C=C1C(=O)Nc1cccc(Cl)c1					IC50 (Nonstructural protein 3 [12]): 0.38 µM; CC50 at 42 h [13]: 48.8 µM; Selectivity Index [14]: 48
Cn1c2ccc(-c3cccc(C(=N)N)c3)cc2c2cc(-c3cccc(C(=N)N)c3)ccc21	0.52	1.25	47.5	38	IC50 (Nonstructural protein 3 [1]): 3.65 µM; inhibition [15]: Active; Selectivity Index [8]: 3
COc1cccc(S(=O)(=O)n2c3ccc(-c4cccc(C(=N)N)c4)cc3c3cc(-c4cccc(C(=N)N)c4)ccc32)c1	0.99	23.8	> 100	> 4	Selectivity Index [8]: 1 to 10
